# pIC50: −log10 of the molar value.
# Target: NLRP3 inflammasome (Homo sapiens (Human), UniProt Q96P20)
# Assay: Evaluation of NLRP3 inflammasome inhibitory activity (inhibition of IL-1β production in LPS/Nigericin-stimulated THP1-Null cells)
# Assay type: cell-based
# Conditions: IL-1β production in THP1-Null cells, PMA, LPS 1 μg/mL, Nigericin 7.5 μmol/L, AlphaLISA
# How it was run: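 THP1-Null cells primed with 1 μg/mL LPS, then treated with test compound; supernatant IL-1β quantified by AlphaLISA. Inhibition calculated with blank wells as 100% and control wells as 0%.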
# Chain of NLRP3 inflammasome (Q96P20 whole entry): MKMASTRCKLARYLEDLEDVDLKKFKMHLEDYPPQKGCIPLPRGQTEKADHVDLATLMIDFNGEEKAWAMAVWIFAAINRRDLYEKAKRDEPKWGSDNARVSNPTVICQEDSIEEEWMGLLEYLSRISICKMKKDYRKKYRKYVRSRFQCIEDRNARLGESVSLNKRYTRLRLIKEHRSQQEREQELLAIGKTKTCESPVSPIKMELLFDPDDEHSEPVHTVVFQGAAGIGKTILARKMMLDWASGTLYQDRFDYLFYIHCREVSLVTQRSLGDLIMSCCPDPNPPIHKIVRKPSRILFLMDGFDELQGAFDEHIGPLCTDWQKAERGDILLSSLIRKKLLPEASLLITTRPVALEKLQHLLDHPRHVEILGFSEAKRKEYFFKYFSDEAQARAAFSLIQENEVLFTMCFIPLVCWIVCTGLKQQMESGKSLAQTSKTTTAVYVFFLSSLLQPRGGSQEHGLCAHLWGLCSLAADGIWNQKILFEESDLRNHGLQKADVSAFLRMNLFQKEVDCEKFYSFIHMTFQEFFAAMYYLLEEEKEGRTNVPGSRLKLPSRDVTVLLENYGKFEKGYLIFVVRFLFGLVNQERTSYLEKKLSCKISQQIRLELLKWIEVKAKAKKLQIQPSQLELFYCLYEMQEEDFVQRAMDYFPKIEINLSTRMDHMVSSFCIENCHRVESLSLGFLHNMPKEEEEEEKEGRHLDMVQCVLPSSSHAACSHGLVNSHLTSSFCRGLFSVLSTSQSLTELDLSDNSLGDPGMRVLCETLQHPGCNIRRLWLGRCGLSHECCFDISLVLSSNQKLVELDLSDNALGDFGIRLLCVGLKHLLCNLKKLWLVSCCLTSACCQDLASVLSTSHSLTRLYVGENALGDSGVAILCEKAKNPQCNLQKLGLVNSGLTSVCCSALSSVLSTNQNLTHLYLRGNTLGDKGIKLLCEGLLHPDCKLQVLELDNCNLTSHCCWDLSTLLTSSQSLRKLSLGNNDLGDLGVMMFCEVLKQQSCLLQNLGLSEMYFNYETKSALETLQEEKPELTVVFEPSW
row,Structure (SMILES),pIC50
1,Nc1cc(C(F)(F)F)cc(Cl)c1-n1cc2c(=O)[nH]c(N3CCOCC3)nc2n1 [Example 271],7.70
2,O=c1[nH]c(N2CCOCC2)nc2nn(-c3c(F)cc(Br)cc3C(F)(F)F)cc12 [Example 272],7.66
3,O=c1[nH]c(N2CCOCC2)nc2nn(-c3c(F)cc(C4CC4)cc3C(F)(F)F)cc12 [Example 273],7.89
4,Cc1cc(Br)cc(C)c1-n1cc2c(=O)[nH]c(NC3COC3)nc2n1 [Example 274],6.24
5,Cc1cc(C2CC2)cc(C)c1-n1cc2c(=O)[nH]c(N3CCOC[C@H]3C)nc2n1 [Example 275],8.07
6,Cc1cc(C2(C(F)(F)F)CC2)cc(C)c1-n1cc2c(=O)[nH]c(N3CCOCC3)nc2n1 [Example 276],6.66
7,Cc1cc(C(F)(F)F)cc(C)c1-n1cc2c(=O)[nH]c(N3CC4CC(C3)O4)nc2n1 [Example 277],7.80
8,Cc1cc(Br)cc(C)c1-n1cc2c(=O)[nH]c(N3CC4CCC(C3)O4)nc2n1 [Example 278],8.10
9,Cc1cc(Br)cc(C)c1-n1cc2c(=O)[nH]c(N3CCCC3)nc2n1 [Example 280],8.38
10,Cc1cc(C(F)(F)F)cc(C)c1-n1cc2c(=O)[nH]c(N3CCCC3)nc2n1 [Example 281],7.89
11,Cc1c(Cl)ccc(-n2cc3c(=O)[nH]c(N4CCOCC4)nc3n2)c1C [Example 282],6.74
12,Cc1cc(Br)cc(C)c1-n1cc2c(=O)[nH]c(N3CCC(F)(F)C3)nc2n1 [Example 283],8.15
13,Cc1cc(Br)cc(C)c1-n1cc2c(=O)[nH]c(N3CCC[C@H]3C)nc2n1 [Example 284],7.92
14,Cc1cc(Br)cc(C)c1-n1cc2c(=O)[nH]c(N3CCC[C@@H]3C)nc2n1 [Example 285],7.57
15,Cc1cc(C2CC2)cc(C)c1-n1cc2c(=O)[nH]c(N3CCCC3)nc2n1 [Example 286],8.38
16,Cc1cc(C2CC2)cc(Cl)c1-n1cc2c(=O)[nH]c(N3C[C@H]4C[C@@H]3CO4)nc2n1 [Example 287],8.02
17,Cc1cc(C2CC2)cc(Cl)c1-n1cc2c(=O)[nH]c(N3C[C@@H]4C[C@H]3CO4)nc2n1 [Example 288],8.00
18,CC(=O)N1CCN(c2nc3nn(-c4c(C)cc(C5CC5)cc4C)cc3c(=O)[nH]2)[C@H](C)C1 [Example 290],8.00
19,Cc1cc(Br)cc(C)c1-n1cc2c(=O)[nH]c(N(C)C(C)C)nc2n1 [Example 291],7.80
20,CCc1cc(C)c(-n2cc3c(=O)[nH]c(N4CCOCC4)nc3n2)c(C)c1 [Example 292],7.55
21,C=C(c1cc(C)c(-n2cc3c(=O)[nH]c(N4CCOCC4)nc3n2)c(C)c1)C(F)(F)F [Example 293],6.54
22,Cc1cc(C(F)(F)F)cc(C)c1-n1cc2c(=O)[nH]c(N3CC4CCC(C3)O4)nc2n1 [Example 295],7.70
23,Cc1cc(Br)cc(Cl)c1-n1cc2c(=O)[nH]c(N3CC4CC(C3)O4)nc2n1 [Example 296],7.85
24,Cc1cc(C2CC2)cc(Cl)c1-n1cc2c(=O)[nH]c(N3CC4CC(C3)O4)nc2n1 [Example 297],8.00
25,"Cc1cc(OC(F)F)cc(C)c1-n1cc2c(=O)[nH]c(N3CCOCC3)nc2n1 [Example 298, 2-(4-(difluoromethoxy)-2,6-dimethylphenyl)-6-morpholino-2,5-dihydro-4H-pyrazolo[3,4-d]pyrimidin-4-one]",7.57

row,Structure (SMILES),pIC50
1,Cc1cc(C2CC2)cc(F)c1-n1cc2c(=O)[nH]c(N3C[C@H]4C[C@@H]3CO4)nc2n1 [Example 299],7.77
2,Cc1cc(C2CC2)cc(F)c1-n1cc2c(=O)[nH]c(N3C[C@@H]4C[C@H]3CO4)nc2n1 [Example 300],7.82
3,Cc1cc(C(C)C)cc(C)c1-n1cc2c(=O)[nH]c(N3CCOCC3)nc2n1 [Example 301],7.68
4,CCOc1cc(Br)ccc1-n1cc2c(=O)[nH]c(N3CCOCC3)nc2n1 [Example 302],6.89
5,CC(C)Oc1cc(Br)ccc1-n1cc2c(=O)[nH]c(N3CCOCC3)nc2n1 [Example 303],7.06
6,COc1cc(Br)ccc1-n1cc2c(=O)[nH]c(N3CCOCC3)nc2n1 [Example 304],7.19
7,O=c1[nH]c(N2CCOCC2)nc2nn(-c3ccc(Br)cc3OC3CCC3)cc12 [Example 305],7.32
8,CC(C)(C)c1ccc(-n2cc3c(=O)[nH]c(N4CCOCC4)nc3n2)c(Br)c1 [Example 306],7.07
9,COc1ccc(-n2cc3c(=O)[nH]c(N4CCCC4)nc3n2)c(Br)c1 [Example 307],7.96
10,Cc1cc(Br)cc(C)c1-n1cc2c(=O)[nH]c(N3CCCO3)nc2n1 [Example 308],6.77
11,O=c1[nH]c(N2C[C@H]3C[C@@H]2CO3)nc2nn(-c3ccc(Br)cc3C(O)C3CC3)cc12 (stereo partly shown) [Example 309],6.96
12,Cc1cc(Br)cc(C)c1-n1cc2c(=O)n(C)c(N3CC4CC(C3)O4)nc2n1 [Example 310],6.35
13,Cn1c(N2CC3CC(C2)O3)nc2nn(-c3ccc(Br)cc3C(F)(F)F)cc2c1=O [Example 311],6.49
14,Cc1cc(C2CC2)cc(C)c1-n1cc2c(=O)n(C)c(N3CC4CC(C3)O4)nc2n1 [Example 312],6.60
15,Cn1c(N2CC3CC(C2)O3)nc2nn(-c3ccc(C4CC4)cc3C(F)(F)F)cc2c1=O [Example 313],6.62
16,COC(c1cc(Br)ccc1-n1cc2c(=O)[nH]c(N3C[C@H]4C[C@@H]3CO4)nc2n1)C1CC1 (stereo partly shown) [Example 314],5.96
17,COC(c1cc(C2CC2)ccc1-n1cc2c(=O)[nH]c(N3C[C@H]4C[C@@H]3CO4)nc2n1)C1CC1 (stereo partly shown) [Example 315],6.17
18,CO[C@@H]1CCN(c2nc3nn(-c4c(C)cc(Br)cc4C)cc3c(=O)[nH]2)C1 [Example 316],8.19
19,CO[C@@H]1CCN(c2nc3nn(-c4c(C)cc(C5CC5)cc4C)cc3c(=O)[nH]2)C1 [Example 317],8.28
20,CO[C@H]1CCN(c2nc3nn(-c4c(C)cc(Br)cc4C)cc3c(=O)[nH]2)C1 [Example 318],7.49
21,CO[C@H]1CCN(c2nc3nn(-c4c(C)cc(C5CC5)cc4C)cc3c(=O)[nH]2)C1 [Example 319],7.62
22,O=c1[nH]c(N2CCOCC2)nc2nn(-c3ccc(Cl)cc3CC3CC3)cc12 [Example 320],7.35
23,O=c1[nH]c(N2CCOCC2)nc2nn(-c3ccc(C4CC4)cc3CC3CC3)cc12 [Example 321],7.54
24,CC(C)Cc1ccccc1-n1cc2c(=O)[nH]c(N3CCOCC3)nc2n1 [Example 322],6.29
25,O=c1[nH]c(N2CCOCC2)nc2nn(-c3ccc(OC(F)F)cc3C(F)(F)F)cc12 [Example 325],7.51

row,Structure (SMILES),pIC50
1,Cc1cc(C2CC2)cc(C)c1-n1cc2c(=O)[nH]c(N3CCCOCC3)nc2n1 [Example 326],8.12
2,Cc1cc(N2CCC2)cc(C)c1-n1cc2c(=O)[nH]c(N3CCOCC3)nc2n1 [Example 327],7.10
3,Cc1cc(C2CC2)cc(C)c1-n1cc2c(=O)[nH]c(N3CCC3)nc2n1 [Example 328],8.24
4,Cc1cc(C(F)F)cc(C)c1-n1cc2c(=O)[nH]c(N3CCOCC3)nc2n1 [Example 329],7.35
5,Cc1cc(C(F)F)cc(C)c1-n1cc2c(=O)[nH]c(N3C[C@H]4C[C@@H]3CO4)nc2n1 [Example 330],7.10
6,Cc1cc(C2CC2)cc(C)c1-n1cc2c(=O)[nH]c(N3CCCCO3)nc2n1 [Example 333],7.31
7,CONc1nc2nn(-c3c(C)cc(Br)cc3C)cc2c(=O)[nH]1 [Example 336],7.55
8,COCCN(C)c1nc2nn(-c3c(C)cc(Br)cc3C)cc2c(=O)[nH]1 [Example 337],7.33
9,Cc1cc(Br)cc(C)c1-n1cc2c(=O)[nH]c(N3CCCCCO3)nc2n1 [Example 338],7.60
10,Cc1cc(Br)cc(C)c1-n1cc2c(=O)[nH]c(N3CCOCCO3)nc2n1 [Example 339],7.43
11,Cc1cc(Br)cc(C)c1-n1cc2c(=O)[nH]c(N3CCc4cccnc43)nc2n1 [Example 340],6.33
12,Cc1ccc(C(F)(F)F)c(-n2cc3c(=O)[nH]c(N4CCOCC4)nc3n2)c1 [Example 341],6.57
13,"Cc1nn(C(C)C)c(C)c1-n1cc2c(=O)[nH]c(N3CCCC3)nc2n1 [Example 343, 2-(1-isopropyl-3,5-dimethyl-1H-pyrazol-4-yl)-6-(pyrrolidin-1-yl)-2,5-dihydro-4H-pyrazolo[3,4-d]pyrimidin-4-one]",6.12
14,Cc1nn(C2CCC2)c(C)c1-n1cc2c(=O)[nH]c(N3CCCC3)nc2n1 [Example 344],6.19
15,COc1cc(C)c(-n2cc3c(=O)[nH]c(N4CCCC4)nc3n2)c(C)c1 [Example 345],7.80
16,Cc1c(-n2cc3c(=O)[nH]c(N4CCCC4)nc3n2)c(C(F)(F)F)nn1C(C)C [Example 346],7.09
17,CONc1nc2nn(-c3c(C)cc(C4CC4)cc3C)cc2c(=O)[nH]1 [Example 348],7.48
18,"Cc1cc(C2CC2)cc(C)c1-n1cc2c(=O)[nH]c(N3CCOCCO3)nc2n1 [Example 349, 2-(4-cyclopropyl-2,6-dimethylphenyl)-6-(1,5,2-dioxazepan-2-yl)-2,5-dihydro-4H-pyrazolo[3,4-d]pyrimidin-4-one]",7.72
19,Cc1nn(C2CCCC2)c(C)c1-n1cc2c(=O)[nH]c(N3CCCC3)nc2n1 [Example 350],5.92
20,Cc1cc(C(C)(F)F)cc(C)c1-n1cc2c(=O)[nH]c(N3CCOCCO3)nc2n1 [Example 351],7.13
21,Cc1cc(OC(F)F)cc(C)c1-n1cc2c(=O)[nH]c(N3CCOCCO3)nc2n1 [Example 352],7.17
22,Cc1cc(Br)cc(C)c1-n1cc2c(=O)[nH]c(N3CCOCC3=O)nc2n1 [Example 353],7.12
23,Cc1cc(OC(F)F)cc(C)c1-n1cc2c(=O)[nH]c(N3CCOCC3=O)nc2n1 [Example 354],6.66
24,O=c1[nH]c(N2CCOCCO2)nc2nn(-c3ccc(Br)cc3C(F)(F)F)cc12 [Example 355],7.37

# Same assay, conditions: IL-1β production in THP1-Null cells; test compound 2.4 μM
row,Structure (SMILES),inhibition at 2.4 µM [%]
1,Cc1cc(Br)cc(C)c1-n1cc2c(OC(F)F)nc(N3CCOCC3)nc2n1 [Example 332],33
2,Cc1nn(C)c(C)c1-n1cc2c(=O)[nH]c(N3CCCC3)nc2n1 [Example 342],45
